# System: Wnt activity (Wnt-responsive Sp5 promoter-luciferase reporter in SW480 cells)
# Test: Wnt activity screening assay: Sp5-Luc reporter gene in SW480 colon carcinoma cells
# Type: cell-based
# Conditions: Homo sapiens
# Excerpt: The screening assay for Wnt activity is described as follows. Reporter cell lines can be generated by stably transducing cancer cell lines (e.g., colon cancer) or primary cells (e.g., IEC-6 intestinal cells) with a lentiviral construct that includes a Wnt-responsive promoter driving expression of the firefly luciferase gene.
# SW480 colon carcinoma cells were transduced with a lentiviral vector expressing luciferase with a human Sp5 promoter consisting of a sequence of eight TCF/LEF binding sites. SW480 cells stably expressing the Sp5-Luc reporter gene and a hygromycin resistance gene were selected by treatment with 150 μg/ml of hygromycin for 7 days. These stably transduced SW480 cells were expanded in cell culture and used for all further screening activities. For Sp5-Luc reporter gene assays, the cells were plated at 10,000 cells/well in 96-well plates with growth medium containing 10% fetal calf serum and incubated overnight at 37° C. and 5% CO2. Each compound was dissolved in DMSO as a 10 mM stock in standard j-vials and used to prepare compound source plates in dose-response format with 3-fold serial dilutions and a 10 mM top concentration. Compound transfer from serially diluted source plates to assay plates containing the cells was accomplished using a pintool (Multimek 96, Beckman equipped with V&P Scientific FP1S50H pins) based liquid handling protocol. This protocol used a slotted pin to transfer 50 nl of compound from a source plate well to an assay plate well containing 50 μl of cells in growth medium. […] Control wells received 50 nl of DMSO treatment for normalization and calculating IC50 values. The treated cells were incubated at 37° C. and 5% CO2 for an additional forty-two hours. Following incubation, the growth medium was removed and 50 μl of BrightGlo luminescence reagent (Promega) was added to each well of the 96-well assay plates. The plates were placed on an orbital shaker for 5 min and then luminescence was quantified on the Victor3 (Perkin Elmer) plate reader. Readings were normalized to DMSO only treated cells, and normalized activities were utilized for IC50 calculations using the dose-response log (inhibitor) vs. response-variable slope (four parameters) nonlinear regression feature available in GraphPad Prism 5.0 or 6.0.
row,IC50 [nM],SMILES
1,61,"CCC(=O)Nc1cncc(-c2cc3c(-c4nc5c(-c6cccc(F)c6)cncc5[nH]4)n[nH]c3cn2)c1 [Compound 1, N-(5-(3-(7-(3-Fluorophenyl)-3H-imidazo[4,5-c]pyridin-2-yl)-1H-pyrazolo[3,4-c]pyridin-5-yl)pyridin-3-yl)propionamide]"
2,120,"CC(C)CC(=O)Nc1cncc(-c2cc3c(-c4nc5c(-c6cccc(F)c6)cncc5[nH]4)n[nH]c3cn2)c1 [Compound 2, N-(5-(3-(7-(3-Fluorophenyl)-3H-imidazo[4,5-c]pyridin-2-yl)-1H-pyrazolo[3,4-c]pyridin-5-yl)pyridin-3-yl)-3-methylbutanamide]"
3,17,"CCCC(=O)Nc1cncc(-c2cc3c(-c4nc5c(-c6cccc(F)c6)cncc5[nH]4)n[nH]c3cn2)c1 [Compound 17, N-(5-(3-(7-(3-Fluorophenyl)-3H-imidazo[4,5-c]pyridin-2-yl)-1H-pyrazolo[3,4-c]pyridin-5-yl)pyridin-3-yl)butyramide]"
4,21.6,"O=C(Nc1cncc(-c2cc3c(-c4nc5c(-c6cccc(F)c6)cncc5[nH]4)n[nH]c3cn2)c1)C1CC1 [Compound 19, N-(5-(3-(7-(3-Fluorophenyl)-3H-imidazo[4,5-c]pyridin-2-yl)-1H-pyrazolo[3,4-c]pyridin-5-yl)pyridin-3-yl)cyclopropanecarboxamide]"
5,170,"CC(C)CC(=O)Nc1cncc(-c2cc3c(-c4nc5c(-c6ccc(F)cc6)cncc5[nH]4)n[nH]c3cn2)c1 [Compound 28, N-(5-(3-(7-(4-Fluorophenyl)-3H-imidazo[4,5-c]pyridin-2-yl)-1H-pyrazolo[3,4-c]pyridin-5-yl)pyridin-3-yl)-3-methylbutanamide]"
6,174,"CC(C)(C)C(=O)Nc1cncc(-c2cc3c(-c4nc5c(-c6ccc(F)cc6)cncc5[nH]4)n[nH]c3cn2)c1 [Compound 34, N-(5-(3-(7-(4-Fluorophenyl)-3H-imidazo[4,5-c]pyridin-2-yl)-1H-pyrazolo[3,4-c]pyridin-5-yl)pyridin-3-yl)pivalamide]"
7,165,"O=C(Nc1cncc(-c2cc3c(-c4nc5c(-c6ccc(F)cc6)cncc5[nH]4)n[nH]c3cn2)c1)C1CCC1 [Compound 46, N-(5-(3-(7-(4-Fluorophenyl)-3H-imidazo[4,5-c]pyridin-2-yl)-1H-pyrazolo[3,4-c]pyridin-5-yl)pyridin-3-yl)cyclobutanecarboxamide]"
8,123,"CC(C)C(=O)Nc1cncc(-c2cc3c(-c4nc5c(-c6ccccc6F)cncc5[nH]4)n[nH]c3cn2)c1 [Compound 61, N-(5-(3-(7-(2-Fluorophenyl)-3H-imidazo[4,5-c]pyridin-2-yl)-1H-pyrazolo[3,4-c]pyridin-5-yl)pyridin-3-yl)isobutyramide]"
9,167,"CC(C)(C)CC(=O)Nc1cncc(-c2cc3c(-c4nc5c(-c6ccccc6F)cncc5[nH]4)n[nH]c3cn2)c1 [Compound 68, N-(5-(3-(7-(2-Fluorophenyl)-3H-imidazo[4,5-c]pyridin-2-yl)-1H-pyrazolo[3,4-c]pyridin-5-yl)pyridin-3-yl)-3,3-dimethylbutanamide]"
10,127,"CCCCC(=O)Nc1cncc(-c2cc3c(-c4nc5c(-c6ccccc6F)cncc5[nH]4)n[nH]c3cn2)c1 [Compound 70, N-(5-(3-(7-(2-Fluorophenyl)-3H-imidazo[4,5-c]pyridin-2-yl)-1H-pyrazolo[3,4-c]pyridin-5-yl)pyridin-3-yl)pentanamide]"
11,> 10000,"CC(C)C(=O)Nc1cncc(-c2cc3c(-c4nc5c(-c6cccnc6)cncc5[nH]4)n[nH]c3cn2)c1 [Compound 87, N-(5-(3-(7-(Pyridin-3-yl)-3H-imidazo[4,5-c]pyridin-2-yl)-1H-pyrazolo[3,4-c]pyridin-5-yl)pyridin-3-yl)isobutyramide]"
12,93.5,"CC(C)Nc1cncc(-c2cc3c(-c4nc5c(-c6cccnc6)cncc5[nH]4)n[nH]c3cn2)c1 [Compound 90, N-Isopropyl-5-(3-(7-(pyridin-3-yl)-3H-imidazo[4,5-c]pyridin-2-yl)-1H-pyrazolo[3,4-c]pyridin-5-yl)pyridin-3-amine]"
13,115,"CCCCC(=O)Nc1cncc(-c2cc3c(-c4nc5c(-c6ccoc6)cncc5[nH]4)n[nH]c3cn2)c1 [Compound 278, N-(5-(3-(7-(Furan-3-yl)-3H-imidazo[4,5-c]pyridin-2-yl)-1H-pyrazolo[3,4-c]pyridin-5-yl)pyridin-3-yl)pentanamide]"
14,79,"CC(C)CC(=O)Nc1cncc(-c2cc3c(-c4nc5c(-c6cccs6)cncc5[nH]4)n[nH]c3cn2)c1 [Compound 288, 3-Methyl-N-(5-(3-(7-(thiophen-2-yl)-3H-imidazo[4,5-c]pyridin-2-yl)-1H-pyrazolo[3,4-c]pyridin-5-yl)pyridin-3-yl)butanamide]"
15,6,"Fc1cccc(-c2cncc3[nH]c(-c4n[nH]c5cnc(-c6cn[nH]c6)cc45)nc23)c1 [Compound 887, 3-(7-(3-Fluorophenyl)-3H-imidazo[4,5-c]pyridin-2-yl)-5-(1H-pyrazol-4-yl)-1H-pyrazolo[3,4-c]pyridine]"
16,735,"Fc1cccc(-c2cncc3[nH]c(-c4n[nH]c5cnc(-c6cncc(OC7CCCCC7)c6)cc45)nc23)c1 [Compound 891, 5-(5-(Cyclohexyloxy)pyridin-3-yl)-3-(7-(3-fluorophenyl)-3H-imidazo[4,5-c]pyridin-2-yl)-1H-pyrazolo[3,4-c]pyridine]"
17,> 10000,"Fc1cccc(-c2cncc3[nH]c(-c4n[nH]c5cnc(-c6cncc(OC7CCNCC7)c6)cc45)nc23)c1 [Compound 892, 3-(7-(3-Fluorophenyl)-3H-imidazo[4,5-c]pyridin-2-yl)-5-(5-(piperidin-4-yloxy)pyridin-3-yl)-1H-pyrazolo[3,4-c]pyridine]"
18,> 10000,"Fc1cccc(-c2cncc3[nH]c(-c4n[nH]c5cnc(-c6cncc(OCCN7CCCC7)c6)cc45)nc23)c1 [Compound 894, 3-(7-(3-Fluorophenyl)-3H-imidazo[4,5-c]pyridin-2-yl)-5-(5-(2-(pyrrolidin-1-yl)ethoxy)pyridin-3-yl)-1H-pyrazolo[3,4-c]pyridine]"
19,520,"Fc1cccc(-c2cncc3[nH]c(-c4n[nH]c5cnc(-c6cncc(OCc7ccccc7)c6)cc45)nc23)c1 [Compound 898, 5-(5-(Benzyloxy)pyridin-3-yl)-3-(7-(3-fluorophenyl)-3H-imidazo[4,5-c]pyridin-2-yl)-1H-pyrazolo[3,4-c]pyridine]"
20,1740,"O=C(CC1CCCCC1)Nc1cncc(-c2cc3c(-c4nc5c(-c6cccc(F)c6)cncc5[nH]4)n[nH]c3cn2)c1 [Compound 899, 2-Cyclohexyl-N-(5-(3-(7-(3-fluorophenyl)-3H-imidazo[4,5-c]pyridin-2-yl)-1H-pyrazolo[3,4-c]pyridin-5-yl)pyridin-3-yl)acetamide]"
21,50,"Fc1cccc(-c2cncc3[nH]c(-c4n[nH]c5cnc(-c6cnccn6)cc45)nc23)c1 [Compound 902, 3-(7-(3-Fluorophenyl)-3H-imidazo[4,5-c]pyridin-2-yl)-5-(pyrazin-2-yl)-1H-pyrazolo[3,4-c]pyridine]"
22,> 10000,"CC(C)CC(=O)Nc1cncc(-c2cc3c(-c4nc5c(-c6cc(F)cc(OCCN(C)C)c6)cncc5[nH]4)n[nH]c3cn2)c1 [Compound 1192, N-(5-(3-(7-(3-(2-(Dimethylamino)ethoxy)-5-fluorophenyl)-3H-imidazo[4,5-c]pyridin-2-yl)-1H-pyrazolo[3,4-c]pyridin-5-yl)pyridin-3-yl)-3-methylbutanamide]"
23,> 10000,"CC(C)CC(=O)Nc1cncc(-c2cc3c(-c4nc5c(-c6cc(F)cc(OCCN7CCCC7)c6)cncc5[nH]4)n[nH]c3cn2)c1 [Compound 1236, N-(5-(3-(7-(3-Fluoro-5-(2-(pyrrolidin-1-yl)ethoxy)phenyl)-3H-imidazo[4,5-c]pyridin-2-yl)-1H-pyrazolo[3,4-c]pyridin-5-yl)pyridin-3-yl)-3-methylbutanamide]"

# Reference: patent publication US10052331B2, “3-(3H-imidazo[4,5-C]pyridin-2-yl)-1H-pyrazolo[3,4-C]pyridine and therapeutic uses thereof” (Samumed, LLC, priority 2014, dated 2018)
